Assay results from US20200277571A1, “METHOD FOR AMPLIFYING CONE PHOTORECEPTORS OR ROD PHOTORECEPTORS USING DORSALIZATION SIGNAL TRANSMITTER OR VENTRALIZATION SIGNAL TRANSMITTER” (RIKEN, priority 2017, published 2020).

Experiments:
[1] = tested on: photoreceptor precursor and cone photoreceptor precursor in retinal tissue produced from human ES cells; experiment: Immunostaining for CRX and TRβ2 and CRX::Venus fluorescence observation of retinal tissue, day 70-75 of suspension culture; format: cell-based; conditions: for CRX-positive and TRβ2-positive cells (cone photoreceptor precursor; proportion to DAPI-positive cells): day 70-75, Control (NUC) about 6.8%; for CRX-positive and TRβ2-positive cells (cone photoreceptor precursor; proportion to DAPI-positive cells) / CRX-positive cells (proportion to DAPI-positive cells) / green fluorescence shown by knocked-in CRX::Venus (order of groups) / cone photoreceptor precursor that emerges in initial stage of development (CRX-positive, TRβ2-expressing) versus Control group / CRX-positive cells (photoreceptor precursors) versus retinal tissue of the Control group: 0.15 nM BMP4, 500 nM Cyclopamine-KAAD; for CRX-positive and TRβ2-positive cells (cone photoreceptor precursor; proportion to DAPI-positive cells) / CRX-positive cells (proportion to DAPI-positive cells): 100 nM LDN193189 or 100 nM SAG from day 22; for CRX-positive cells (proportion to DAPI-positive cells): day 70-75 from start of suspension culture, Control (NUC) about 10.6%; for green fluorescence shown by knocked-in CRX::Venus (order of groups): day 70, fluorescence microscope; for green fluorescence shown by knocked-in CRX::Venus (order of groups) / cone photoreceptor precursor that emerges in initial stage of development (CRX-positive, TRβ2-expressing) versus Control group / CRX-positive cells (photoreceptor precursors) versus retinal tissue of the Control group: 100 nM LDN193189, 100 nM SAG from day 22; for cone photoreceptor precursor that emerges in initial stage of development (CRX-positive, TRβ2-expressing) versus Control group: day 70 or 75; for CRX-positive cells (photoreceptor precursors) versus retinal tissue of the Control group / CRX::Venus-positive cells (GFP immunostaining) versus Control (NUC) group: day 75; for CRX-positive cells (photoreceptor precursors) versus retinal tissue of the Control group: immunostained sections; for CRX::Venus-positive cells (GFP immunostaining) versus Control (NUC) group: along with change of ALDH1A3 region, 0.15 nM BMP4, 100 nM LDN193189, 100 nM SAG from day 22
Protocol: CRX::Venus knock-in human ES cells (derived from KhES-1; Nakano, T. et al. Cell Stem Cell 2012, 10(6), 771-785) were cultured according to the methods described in “Ueno, M. et al. PNAS 2006, 103(25), 9554-9559” “Watanabe, K. et al. Nat Biotech 2007, 25, 681-686”. As a medium for culturing human ES cells, DMEM/F12 medium (Sigma) supplemented with 20% KSR (KnockOut™ Serum Replacement; Invitrogen), 0.1 mM 2-mercaptoethanol, 2 mM L-glutamine, ix non-essential amino acid, 7.5 ng/mL bFGF was used.
A cell aggregate containing a retinal tissue was prepared by the method described in “Kuwahara et al. Nat Commun 2015, 19(6), 6286-” after modification in part. That is, the aforementioned cultured ES cells were individually dispersed using TrypLE Express (Invitrogen), and the individually dispersed human ES cells were suspended in 100 μL of a serum-free medium in a cell non-adhesive 96 well plate (SUMILON spheroid plate, SUMITOMO BAKELITE CO., LTD.) at 9×10^3 cells per well to allow rapid formation of aggregates, after which they were cultured at 37° C., 5% CO2. As the serum-free medium therefor, a serum-free medium obtained by adding 10% KSR, 450 μM 1-monothioglycerol, 1× Chemically defined lipid concentrate, 5 mg/mL BSA, 20 μM Y27632 to a 1:1 mixture of F-12 medium and IMDM medium was used. At 6 days after the start of suspension culture, BMP4 at a final concentration of 1.5 nM was added and suspension culture was continued. A half amount of the culture medium in the well was exchanged with the above-mentioned medium not supplemented with a BMP signal transduction pathway agonist every 3 or 4 days. A cell aggregate containing a retinal tissue at day 18 from the start of suspension culture was cultured in suspension in a serum-free medium (DMEM/F12 medium supplemented with 1% N2 supplement) containing 3 μM CHIR99021 and 5 μM SU5402 for 4 days, namely, up to day 22 from the start of suspension culture. Thereafter, suspension culture of the cell aggregate containing the retinal tissue was continued until it was appropriately used for analysis and the like. As the culture medium during this period, serum-containing media shown in the following to [3] were used and the cell aggregate was cultured under 5% CO2 conditions.
[1] day 22 to day 38 from the start of suspension culture; DMEM/F12 medium supplemented with 10% fetal calf serum, 1% N2 supplement, and 100 μM taurine. day 38 to day 60 from the start of suspension culture; a 1:3 mixed medium of DMEM/F12 medium supplemented with 10% fetal calf serum, 1% N2 supplement, and 100 μM taurine, and Neurobasal medium supplemented with 10% fetal calf serum, 2% B27 supplement, and 100 μM taurine. after day 60 from the start of suspension culture; Neurobasal medium supplemented with 10% fetal calf serum, 2% B27 supplement, and 100 μM taurine.
[1] Control group (FIG. 2a, f, k, p); according to the method described in Example 1, culture was performed up to day 70 or day 75 from the start of suspension culture and without addition. [2]+BMP group (FIG. 2b, g, 1, q); 0.15 nM BMP4 was added from day 22 from the start of suspension culture to completion of suspension culture, and cultured up to day 70 or day 75 from the start of suspension culture. [3]+Cyclopamine-KAAD group (FIG. 2c, h, m, r); 500 nM Cyclopamine-KAAD was added from day 22 from the start of suspension culture to completion of the suspension culture, and cultured up to day 70 or day 75 from the start of suspension culture. [4]+LDN193189 group (FIG. 2d, i, n, s); 100 nM LDN193189 was added from day 22 from the start of suspension culture to completion of the suspension culture, and cultured up to day 70 or day 75 from the start of suspension culture. [5]+SAG group (FIG. 2e, j, o, t); 100 nM SAG was added from day 22 from the start of suspension culture to completion of the suspension culture, and cultured up to day 70 or day 75 from the start of suspension culture. […]

[2] = tested on: ALDH1A1; experiment: Immunostaining for ALDH1A1 (dorsal marker) of retinal tissue; format: cell-based, human
Protocol: [1] Control group (FIG. 2a, f, k, p); according to the method described in Example 1, culture was performed up to day 70 or day 75 from the start of suspension culture and without addition. [2]+BMP group (FIG. 2b, g, 1, q); 0.15 nM BMP4 was added from day 22 from the start of suspension culture to completion of suspension culture, and cultured up to day 70 or day 75 from the start of suspension culture. [3]+Cyclopamine-KAAD group (FIG. 2c, h, m, r); 500 nM Cyclopamine-KAAD was added from day 22 from the start of suspension culture to completion of the suspension culture, and cultured up to day 70 or day 75 from the start of suspension culture. [4]+LDN193189 group (FIG. 2d, i, n, s); 100 nM LDN193189 was added from day 22 from the start of suspension culture to completion of the suspension culture, and cultured up to day 70 or day 75 from the start of suspension culture. [5]+SAG group (FIG. 2e, j, o, t); 100 nM SAG was added from day 22 from the start of suspension culture to completion of the suspension culture, and cultured up to day 70 or day 75 from the start of suspension culture.
The retinal tissue produced by the methods described in Example 2 and Example 7 was fixed with 4% para-formaldehyde, cryosections were prepared, and immunostaining for ALDH1A1 was performed. The retinal tissue used was one on day 75 from the start of suspension culture similar to Example 2 and one on about day 40 from the start of suspension culture and cultured under the same conditions except the culture period as in Example 7.

[3] = about day 40 from start of suspension culture, 0.15 nM BMP4, 100 nM LDN193189, 100 nM SAG from day 22

| Compound | CRX-positive and TRβ2-positive cells (cone photoreceptor precursor; proportion to DAPI-positive cells) [1] | CRX-positive cells (proportion to DAPI-positive cells) [1] | green fluorescence shown by knocked-in CRX::Venus (order of groups) [1] | cone photoreceptor precursor that emerges in initial stage of development (CRX-positive, TRβ2-expressing) versus Control group [1] | CRX-positive cells (photoreceptor precursors) versus retinal tissue of the Control group [1] | CRX::Venus-positive cells (GFP immunostaining) versus Control (NUC) group [1] | clear ALDH1A1-positive region (dorsal region) [2, 3] | clear ALDH1A1-positive region (dorsal region) ([2]; day 75 from start of suspension culture, 0.15 nM BMP4 from day 22) |
| --- | --- | --- | --- | --- | --- | --- | --- | --- |
| CC1=C2C[C@H]3[C@@H](CC=C4CC(=O)CC[C@@]43C)[C@@H]2CC[C@]12O[C@@H]1C[C@H](C)CN(CCNC(=O)CCCCCNC(=O)CCc3ccccc3)[C@H]1[C@H]2C [Cyclopamine-KAAD] | ~8.1% | ~14.1% | observed more in the order of +BMP4 group, +Cyclopamine-KAAD group, Control group, +LDN193189 group, +SAG group | observed more | Slightly more |  |  |  |
| c1ccc2c(-c3cnn4cc(-c5ccc(N6CCNCC6)cc5)cnc34)ccnc2c1 [LDN193189, 4-[6-(4-piperazin-1-ylphenyl)pyrazolo[1,5-a]pyrimidin-3-yl]quinoline] | ~4.5% | about 6.8% | observed more in the order of +BMP4 group, +Cyclopamine-KAAD group, Control group, +LDN193189 group, +SAG group | less | less | decreased | not found |  |
| CNC1CCC(N(Cc2cccc(-c3ccncc3)c2)C(=O)c2sc3ccccc3c2Cl)CC1 (stereo not drawn) [SAG] | ~3.2% | ~5.1% | observed more in the order of +BMP4 group, +Cyclopamine-KAAD group, Control group, +LDN193189 group, +SAG group | less | lesser | decreased | not found |  |
| BMP4: BMP protein; BMP signal transduction pathway agonist used as dorsalization signal transmitter | about 10.8% | about 17.0% | observed more in the order of +BMP4 group, +Cyclopamine-KAAD group, Control group, +LDN193189 group, +SAG group | observed more | clearly higher | increased | found only in +BMP4 group | not observed |
